In assay [1] the test system is parasite. Put plainly: Parasite LDH growth assay (Parasite Assay), antiparasite potency. Format: cell-based. The conditions noted are these: 72 h. Summed up:
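Ring-stage parasites at 0.7% parasitemia and 2% haematocrit, in RPMI-Hepes/bicarbonate with 5% heat-inactivated human serum and 0.5% albumax, were added to compound-containing medium. Cultures grew 72 h at 37 °C in gassed humidified boxes. Plates were then frozen overnight at −80 °C, thawed 4 h, and growth was measured by LDH assay.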

The subject of assay [2] is PMIX. Put plainly: Cleavage of PMIX substrates RAP1 and ASP in parasite extracts. Format: cell-based, P. falciparum. On the procedure: To confirm that Example 1A was a dual inhibitor of PMIX and PMX function, the ability of this compound to inhibit cleavage of the known PMIX substrate Rhoptry Associated Protein 1 (RAPI) in parasite extracts was tested (Pino et al., 2017). RAP1 is a merozoite rhoptry protein that is localized to the parasitophorous vacuole after invasion and processed by both PMIX and SUB1 (Pino et al., 2017). […] RAP1 was not released into the parasite supernatant because it was deposited in the parasitophorous vacuole during the invasion process (Baldi, D., Andrews, K., Waller, R., Roos, D., Howard, R., Crabb, B. and Cowman, A. (2000)). RAP1 controls rhoptry targeting of RAP2 in the malaria parasite Plasmodium falciparum. Embo Journal 19, 2435-2443.

Assay [3] has as its system P. berghei sporozoites expressing mCherry and Luciferase (PbmCherryLuci). In words: Chemoprotection of BALB/c mice infected with PbmCherryLuci sporozoites (FIG. 1). The conditions noted are these: female BALB/c mice, 40,000 sporozoites i.v.; treated twice by oral gavage at 36 and 48 hours during liver infection; 30 days monitoring. The format is in vivo, Plasmodium berghei. Here is the method: (§1) 40,000 PbmCherryLuci sporozoites (or the indicated number of sporozoites) were inoculated i.v. and compounds were administered by oral gavage at indicated time points during liver infection. Liver infection levels and egress of parasites from the liver were measured by bioluminescence signal from the parasites using an In Vivo Imaging System (IVIS, Perkin Elmer) at the peak of liver infection (52 hours post infection, hpi), during liver egress (55 hpi) as well as during the first round of blood infection (65 hpi). Initiation of blood infection was also measured by flow cytometry at 65 hpi using the mCherry reporter to determine the parasitemia of this first round of blood infection. These analyses allowed quantification of the efficacy of drug killing of parasites in the liver (52 hpi), preventing their egress from the liver (55 hpi) or preventing their successful infection of the blood (65 hpi). Mice were monitored by giemsa stained thin blood smears for the presence of parasites in the blood for 30 days post infection. If no blood infection was seen during the subsequent 30 days, mice were declared cured of malaria infection.
Mice were infected with 40,000 P. berghei sporozoites expressing mCherry and Luciferase (PbmCherryLuci) and treated with Example 1A as described above. […]

Assay [4] deals with PbmCherryLuci. In words: Rechallenge of chemo-protected mice by mosquito bite infection at 6 and 12 months (FIG. 2A, 2B). As to conditions: 15 infected mosquito bites. Format: in vivo, Plasmodium berghei. From the text: Previously chemo-protected mice were rechallenged with PbmCherryLuci 6 months later by mosquito bite infection. […] In both experiments naïve, sex matched control mice all became infected as expected. Thus in addition to chemoprotection, Example IA could possibly act as a chemovaccination to protect against future infections for one year or more.

The subject of assay [5] is PbmCherryLuci salivary gland sporozoites in HepG2 human hepatoma cells. In words: In vitro infection assay: immune serum inhibition of sporozoite infection of HepG2 cells (FIG. 3). The format is cell-based, Plasmodium berghei. As to conditions: serum of five BALB/c mice immunised ten months prior, 1 in 20 dilution, 48 h, versus naive serum. On the procedure:
To initiate the in vitro infection assay, 30,000 HepG2 human hepatoma cells were seeded into a 96-well plate format the day before infection. The day of infection, freshly dissected PbmCherryLuci salivary gland sporozoites were incubated with a 1 in 20 dilution of either naïve BALB/c serum (from n=5 mice) or immune serum (from n=5 mice) in culture media and added to HepG2 wells in technical triplicate. Serum samples were not pooled, so the response from five individual mice was analysed independently. Forty-eight hours after infection the infected cells were fixed with 4% formaldehyde and imaged using an Opera Phenix High Content Imager (PerkinElmer). The number of parasites in each well was counted using the mCherry reporter expressed by these parasites, the average number of parasites between the technical triplicates averaged for each serum sample, and the average for each mouse presented.

Assay [6] has as its system PbmCherryLuci. In words: Prime/boost immunisation of C57BL/6 mice with CD8 depletion before mosquito bite challenge (FIG. 4). Format: in vivo, Plasmodium berghei. As to conditions: C57BL/6, prime/boost with 2 x 100 mg/kg P.O., 10 mosquito bites ten weeks after boost. Here is the method:
In addition to these protective antibody responses, the contribution of CD8 T-cells to the mechanism of immune protection was tested. Female C57BL/6 mice were immunized using a prime/boost immunisation regimen. The first immunisation was with 40,000 PbmCherryLuci salivary gland sporozoites i.v. followed by two doses of Example 1A at 100 mg/kg P.O. (given at 36 and 48 hours post infection). The second immunisation (boost) was eight weeks later, this time with 20,000 PbmCherryLuci sporozoites but with Example IA treatment as for the prime immunisation. Ten weeks after the boost immunisation (eighteen weeks after the prime immunisation) the mice were injected with 150 μg of a CD8 depleting antibody, or an isotype control non-depleting antibody the day before the mice were challenged with the bites of 10 PbmCherryLuci infected mosquitoes for 15 minutes. Giemsa stained thin blood smears were analysed until 30 days after challenge for the presence of parasites in the blood and mice were considered to be protected from infection if no blood parasites were observed within the 30 days post […].

Assay [7] relates to PbmCherryLuci sporozoites. Put plainly: Inhibition of liver to blood transition in C57BL/6 mice (FIG. 8). The format is in vivo, Plasmodium berghei. As to conditions: oral gavage during liver infection. On the procedure: as §1
C57BL/6 mice were administered Example 1A or Example 75A as described in the general experimental procedure.

The structures appear in SMILES notation.

We go through one compound from patent publication US20230355622A1, “METHODS OF CHEMOVACCINATION AGAINST PLASMODIUM INFECTIONS” (Merck Sharp & Dohme LLC, priority 2020, published 2023).

In the case of `CCC1(CC)CC(=O)N(C2CCOc3ccc(C(=O)N[C@H]4CC(C)(C)Oc5ccccc54)cc32)C(=N)N1` (stereo partly drawn) [Example 1A, 4-(4,4-diethyl-2-imino-6-oxotetrahydropyrimidin-1(2H)-yl)-N—((S)-2,2-dimethylchroman-4-yl)chroman-6-carboxamide], in assay [1], the midpoint of the response, the EC50, lay at 0.5 nM. In assay [2] (treated parasites/merozoites, processed forms p82 and p69, unprocessed p87), the “RAP1 processing by PMIX and SUB1” value is on record as “only the unprocessed p87 form of RAP1 was present”. In addition, the “Apical Sushi Protein (ASP) processing by PMIX” value in assay [2] (treated parasites, p47 processed, p87 full-length) is recorded as “cleavage event was inhibited”. In assay [3], the “cure of infection / prevention of subsequent blood infection” value is on record as “cured mice of infection”. For the same compound, the “immunity to reinfection challenge” value in assay [4] (rechallenge 6 months later) is “all mice were subsequently immune”. The “mice fully protected on rechallenge” value in assay [4] (rechallenge 12 months after chemoprotection) is given as “Four of five mice were again fully protected”. Further, in assay [5], the “inhibition of HepG2 infection by immune serum” value was “inhibition of infection using the serum from each of the five immunised mice”. Moreover, the “blood parasites after challenge” value in assay [6] (150 μg CD8 depleting antibody) is “all had blood parasites 4 days after challenge”; in assay [6] (isotype control non-depleting antibody), “negative for blood parasites throughout the 30-day observation period”. Moreover, the “infection of the blood” value in assay [7] is on record as “completely prevented infection of the blood in all mice”.

What is called EC50 is the concentration at which the effect is half-maximal. Low readings indicate greater potency, high ones weaker potency.
